Data taken from patent US9393199B2, “Methods and compositions for localized agent delivery” (Massachusetts Institute of Technology, priority 2008, dated 2016).

How the values were obtained:
[1] = Release of cargo from lipid-coated DNA-gel nanoparticles (data not shown); format: physicochemical; conditions: lipid-coated DNA-gel particles ~200 nm
[2] = tested on: lineage−Sca-1+c-kit+ progenitor cells; experiment: Reconstitution by hematopoietic progenitor cell grafts in lethally irradiated recipients; format: in vivo; conditions: 1.6 ng TWS119 at the time of transplantation
Method: FIGS. 14A-D. Hematopoietic progenitor cells (referred to in the Figure as HSCs) carrying GSK-3β inhibitor-loaded nanoparticles reconstitute recipient animals with rapid kinetics following bone marrow transplants without affecting multilineage differentiation potential. (A, B) Engraftment kinetics of luciferase-transgenic HSC grafts in lethally-irradiated nontransgenic syngeneic recipients. Mice were treated with a single bolus injection of the GSK-3β inhibitor TWS119 (1.6 ng) on the day of transplantation, an equivalent TWS119 dose encapsulated in HSC-attached DNA-gel nanoparticles, or no exogenous agent. Transplanted mice were imaged for whole-body bioluminescence every 7 days for 3 weeks. Shown are representative IVIS images (A) and whole animal photon counts (B) for 9 mice total/treatment condition. (C) Percentage of donor-derived cells in recipient mice 2 weeks after transplantation of GFP^+ HSCs with or without TWS119. *P<0.001. (D) Average frequency of donor-derived GFP^+ B cells, T cells, and myeloid cells in recipient mice 3 months after transplantation. 5 mice/group were analyzed.
We further examined the utility of this delivery approach in the context of hematopoietic stem cell transplantations. We treated C57Bl/6 F-luc-transgenic mice or C57Bl/6 GFP-transgenic mice with 5-fluorouracil (5-FU, Sigma Aldrich) (150 mg/kg, i.p) and euthanized them 3 days later. […]

[3] = systemic, delivered orally, humans; cited from earlier work
[4] = cited from earlier work
[5] = systemically injected; cited from earlier work
[6] = Kinetics of protein release from lipid-coated PLGA particles in vitro (ELISA of supernatant); format: physicochemical; conditions: complete RPMI 10% FCS, 37° C., by the end of the incubation period (~1 week)
Method: FIGS. 5A-C. Protein and TLR ligand incorporation in lipid-coated PLGA nanoparticles. (A) Confocal image (left) and cryoEM image (right) of lipid-coated nanoparticles loaded with fluorescent ova in the particle cores. Note that the particles in the confocal image are artificially aggregated here by drying on a coverslip for imaging. (B) Kinetics of IL-15 release from lipid-coated PLGA particles in vitro in complete medium at 37° C. (C) Bone marrow-derived DCs were incubated with 3 mg/mL lipid-nanoparticles containing 1 mole % or 10 mole % MPLA in the lipid coating, equivalent amounts of soluble MPLA (30 μg/mL or 3 μg/mL), or soluble LPS (1 μg/mL) as a positive control. At 24 hrs, the maturation status of the cells was assessed by flow cytometry analysis of cell surface MHC II, CD80, and CD40 (not shown).
Ova however is a model globular protein and as such it was chosen to illustrate the behavior of other proteins such as interleukin-15 (IL-15) superagonist molecules which can be used to support ACT T cells. […] The kinetics of IL-15 release from the particles was determined by incubating the particles in complete RPMI medium containing 10% FCS at 37° C. with gentle agitation and taking aliquots of the supernatant at staggered timepoints for ELISA analysis of cytokine content. […]

Nc1cccc(-c2cc3c(Oc4cccc(O)c4)ncnc3[nH]2)c1 [TWS119]
period of slow release from DNA-gel nanoparticles [1]: 7 days
engraftment kinetics / proliferative reconstitution of progenitor cell grafts [2]: did not significantly alter

CC(C)Cn1cnc2c(N)nc3ccccc3c21 [imiquimod]
toxicity [3]: dose-limiting toxicity
half-life following injection [4]: ~2 h

IL-15: Interleukin-15, cytokine; encapsulated alone in lipid-coated PLGA particles in b217
half life [5]: ~1 h
encapsulated cytokine released [6]: ~80%
